US20130295026A1, “FAST DISINTEGRATING COMPOSITIONS COMPRISING NABILONE AND RANDOMLY METHYLATED BETA CYCLODEXTRIN” (priority 2010, published 2013)

Experiments:
[1] = 25° C; cited from earlier work
[2] = Amount of Nabilone solubilized by cyclodextrin solutions, determined by extraction of the drug from lyophilized complexes (HPLC); settings: for Increase of Nabilone solubility compared to water: water <0.5 μg/ml
Description: For the preparation of solubility isotherms, a surplus of Nabilone was added to a dilution series of cyclodextrins in distilled water. The surplus of Nabilone was approximately 130% of the maximum amount of Nabilone that could be resolved theoretically in the cyclodextrin solution. For the preparation of standard curves, an accurately weighted amount of Nabilone was added to an aqueous RAMEB solution. Then, the suspensions were stirred at 600 rpm at a constant temperature (4° C.-40° C.) in the cold room or in an environmental simulation chamber for the time periods indicated. Afterwards, the samples were centrifuged at 10,000 rpm and filtrated to remove undissolved particles prior to freeze-drying or HPLC analysis.
The filtrated solutions of the Nabilone—cyclodextrin complexes were frozen as a thin film on the inner side of round bottom glass container in a methanol—dry ice bath. Lyophilization was performed for 20 h using a Heto Power Dry LL3000 instrument (Thermo Fisher Scientific).
Freeze-dried products were stirred with acetonitrile for 30 min to promote complex dissociation and extraction of Nabilone. Samples were centrifuged and the residue was washed again two times with acetonitrile. Combined acetonitrile supernatants were evaporated under vacuum and the residue dissolved in a defined amount of acetonitrile. After centrifugation (10,000 rpm, 5 min) the content of Nabilone was measured using HPLC and related to 1 ml of the initial reaction solution.
Many cyclodextrins and cyclodextrin derivatives are not soluble in acetonitrile, which in contrast is the optimal solvent for Nabilone, preventing analysis of the Nabilone-cyclodextrin complexes with HPLC. […] The concentrations of the cyclodextrin solutions were adapted to their solubility in water. Whenever possible, concentrations of 15%, 20%, and 30% were selected.

Molecule | Aqueous solubility of Nabilone [1] | Nabilone solubility in water ([2]; H2O, no cyclodextrin) [µg/mL] | solubility ([2]; water, thermodynamic from solid, Nabilone solubility in water, H2O, no cyclodextrin) [µg/mL] | Amount of Nabilone solubilized by 1 ml cyclodextrin solution ([2]; 15% cyclodextrin solution) [µg/mL] | Amount of Nabilone solubilized by 1 ml cyclodextrin solution ([2]; 20% cyclodextrin solution) [µg/mL] | Amount of Nabilone solubilized by 1 ml cyclodextrin solution ([2]; 30% cyclodextrin solution) | Increase of Nabilone solubility compared to water ([2]; 30% cyclodextrin solution)
CCCCCCC(C)(C)c1cc(O)c2c(c1)OC(C)(C)C1CCC(=O)CC21 (stereo not drawn) [Nabilone] | less than 0.5 μg/ml | 0.5 | < 0.5 |  |  |  | 
hydroxypropyl-β-Cyclodextrin [HP-β-CD] |  |  |  | 16.2 ± 5.4 | 32.2 ± 0.1 | 44.5 ± 0.8 µg/mL | 90 fold
β-CD sulfobutyl ether sodium salt [SBE-β-CD] |  |  |  |  |  | <1 µg/mL | 
randomly methylated β-Cyclodextrin [RAMEB] |  |  |  | 2620 ± 70 | 3330 ± 390 | 4,460±180 μg/ml | up to 9.000 fold
